Laboratory results taken from US20080293696A1, “2-Aminoarylcarboxamides Useful as Cancer Chemotherapeutic Agents” (Bayer Pharmaceuticals Corporation, priority 2004, published 2008).

System: PAKT/PKB (p-(S473) AKT) in H209 small cell lung carcinoma cells stimulated with Stem Cell Factor
Assay: PAKT/PKB Cytoblot Assay with H209 cells (SCF-stimulated p-(S473) AKT)
Format: cell-based
Settings: Homo sapiens, NCI-H209, compound 1 hour, SCF 25 ng/mL 5 minutes
Protocol: PAKT/PKB Cytoblot Assay Protocol with H209 Cells
H209 small cell lung carcinoma cells in log phase were plated at 50,000 cells/well in 96-well poly-lysine coated, clear bottom/black-sided plates (BD Cat # 354640) in 100 μl RPMI medium containing 0.1% (w/v) BSA, and incubated overnight at 37° C. in 5% CO2 incubator. The following day, compounds (10 mM stock solutions in DMSO) were added to the plates to generate final concentrations of 0.0, 0.01, 0.03, 0.1, 0.3, 1.0, 3.0 and 10 μM for IC50 determinations and incubated for 1 hour at 37° C. Cells were then left untreated or stimulated with Stem Cell Factor (SCF: Biosource Cat # PHC2116) at a final concentration of 25 ng/mL for 5 minutes at 37° C. in 5% CO2 incubator. The media was then removed using a vacuum manifold and the cells were washed once with Tris Buffered Saline (TBS).
Cells were then fixed by adding 200 μl of cold 3.7% (v/v) formaldehyde in TBS to each well for 15 minutes at 4° C. After removal of the formaldehyde, the cells were treated with the addition of 50 μl of methanol (at −20° C.) to each well for 5 minutes. After removal of the methanol, […] of 1% (w/v) BSA in TBS was added to each well to block non-specific antibody binding sites and the plate was incubated at room temperature for 30 minutes.
After removal of the blocking buffer, 50 μl of p-(S473) AKT rabbit polyclonal antibody (Cell Signaling Cat # 9277S) was added at a dilution of 1:250 in 0.1% (w/v) BSA in TBS, and the plate was incubated at room temperature for 1 hour. Plates were then washed 3 times with cold TBS containing 0.05% (v/v) Tween 20 (TBS-T) and […] of Horseradish peroxidase (HRP)-conjugated goat-anti-rabbit antibody (Amersham Cat # NA934V) at a dilution of 1:250 in TBS-T was added and the plate was incubated at room temperature for 1 h. After washing with ice-cold TBS-T four times, 100 μl of Enhanced Chemiluminescence (ECL) reagent (Amersham Cat# RPN2209) was added to each well and mixed on a mini-orbital shaker for 1 min. The plate was then read on a Perkin Elmer Victor 5 Multilabel Counter (#1420-0421).

| Compound | IC50 (group: less than 500 nM) | also measured |
| --- | --- | --- |
| COc1ccc(NCc2ccncc2)c(C(=O)Nc2ccc3c(c2)OC(F)(F)C(F)(F)O3)c1 [Example 1, 5-methoxy-2-[(pyridin-4-ylmethyl)amino]-N-(2,2,3,3-tetrafluoro-2,3-dihydro-1,4-benzodioxin-6-yl)benzamide] | – | IC50 (group: between 1 and 3 μM): 1000 to 3000 nM |
| COc1cccc(C(=O)Nc2ccc3c(c2)OC(F)(F)C(F)(F)O3)c1NCc1ccncc1 [Example 7, 3-methoxy-2-[(pyridin-4-ylmethyl)amino]-N-(2,2,3,3-tetrafluoro-2,3-dihydro-1,4-benzodioxin-6-yl)benzamide] | – | IC50 (group: between 1 and 3 μM): 1000 to 3000 nM |
| COc1cccc(C(=O)Nc2ccc3c(c2)C(F)(F)OC(F)(F)O3)c1NCc1ccncc1 [Example 8, 3-methoxy-2-[(pyridin-4-ylmethyl)amino]-N-(2,2,4,4-tetrafluoro-4H-1,3-benzodioxin-6-yl)benzamide] | – | IC50 (group: between 500 nM and 1 μM (units in value)): 500 to 1000 nM |
| COc1cccc(NCc2ccncc2)c1C(=O)Nc1ccc2c(c1)C(F)(F)OC(F)(F)O2 [Example 10, 2-methoxy-6-[(pyridin-4-ylmethyl)amino]-N-(2,2,4,4-tetrafluoro-4H-1,3-benzodioxin-6-yl)benzamide] | < 500 nM | – |
| COc1cccc(NCc2ccncc2)c1C(=O)Nc1ccc2c(c1)OC(F)(F)O2 [Example 11, N-(2,2-difluoro-1,3-benzodioxol-5-yl)-2-methoxy-6-[(pyridin-4-ylmethyl)amino]benzamide] | < 500 nM | – |
| O=C(Nc1ccc2c(c1)OC(F)(F)C(F)(F)O2)c1cccnc1NCc1ccncc1 [Example 12, 2-[(pyridin-4-ylmethyl)amino]-N-(2,2,3,3-tetrafluoro-2,3-dihydro-1,4-benzodioxin-6-yl)nicotinamide] | < 500 nM | – |
| Cc1ccc(C(=O)Nc2ccc3c(c2)OC(F)(F)C(F)(F)O3)c(NCc2ccncc2)n1 [Example 13, 6-methyl-2-[(pyridin-4-ylmethyl)amino]-N-(2,2,3,3-tetrafluoro-2,3-dihydro-1,4-benzodioxin-6-yl)nicotinamide] | < 500 nM | – |
| O=C(Nc1ccc2c(c1)OC(F)(F)C(F)(F)O2)c1cnccc1NCc1ccncc1 [Example 14, 4-[(pyridin-4-ylmethyl)amino]-N-(2,2,3,3-tetrafluoro-2,3-dihydro-1,4-benzodioxin-6-yl)nicotinamide] | < 500 nM | – |

Second part, led by results:

| IC50 (group: less than 500 nM) | Compound | also measured |
| --- | --- | --- |
| < 500 nM | O=C(Nc1ccc2c(c1)C(F)(F)OC(F)(F)O2)c1ccccc1NCc1ccncc1 [Example 2, 2-[(pyridin-4-ylmethyl)amino]-N-(2,2,4,4-tetrafluoro-4H-1,3-benzodioxin-6-yl)benzamide] | – |
| < 500 nM | CNC(=O)c1cc(CNc2ccccc2C(=O)Nc2ccc3c(c2)OC(F)(F)C(F)(F)O3)ccn1 [Example 3, N-methyl-4-{[(2-{[(2,2,3,3-tetrafluoro-2,3-dihydro-1,4-benzodioxin-6-yl)amino]carbonyl}phenyl)amino]methyl}pyridine-2-carboxamide] | – |
| < 500 nM | CNC(=O)c1cc(CNc2ccccc2C(=O)Nc2ccc3c(c2)C(F)(F)OC(F)(F)O3)ccn1 [Example 4, N-methyl-4-{[(2-{[(2,2,4,4-tetrafluoro-4H-1,3-benzodioxin-6-yl)amino]carbonyl}phenyl)amino]methyl}pyridine-2-carboxamide] | – |
| < 500 nM | O=C(Nc1ccc2c(c1)OC(F)(F)O2)c1ccccc1NCc1ccncc1 [Example 5, N-(2,2-difluoro-1,3-benzodioxol-5-yl)-2-[(pyridin-4-ylmethyl)amino]benzamide] | – |
| < 500 nM | O=C(Nc1ccc2c(c1)OC(F)(F)C(F)(F)O2)c1ccccc1NCc1ccncc1 [Example 6, 2-[(pyridin-4-ylmethyl)amino]-N-(2,2,3,3-tetrafluoro-2,3-dihydro-1,4-benzodioxin-6-yl)benzamide] | – |
| < 500 nM | COc1cccc(NCc2ccncc2)c1C(=O)Nc1ccc2c(c1)OC(F)(F)C(F)(F)O2 [Example 9, 2-methoxy-6-[(pyridin-4-ylmethyl)amino]-N-(2,2,3,3-tetrafluoro-2,3-dihydro-1,4-benzodioxin-6-yl)benzamide] | – |
